Toxic doses and inconclusive results are not listed. Cut-off read from the data, not from the text of the source: active = T/C of 150% or more; inactive = T/C below 125%.
Test system: L1210 leukemia ip in BDF1 mice, survival T/C
Assay: NCI In Vivo Anticancer Drug Screen. Data for tumor model L1210 Leukemia (intraperitoneal) in B6D2F1 (BDF1) mice
Details: higher = longer survival
Procedure, shortened: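 Mice bearing the transplanted tumor received compound or vehicle. Survival of the treated group was divided by that of the vehicle-treated control group to give the ratio.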

Measured: T/C

Cc1[nH]c(=O)[nH]c(=O)c1NCCO
inactive: endpoint: mean survival time, dose: 100.0 mg/kg/injection, schedule: Q01DX009 (ip), vehicle: water 91 % of control | endpoint: mean survival time, dose: 100.0 mg/kg/injection, schedule: Q04DX003 (ip), vehicle: water 101 % of control | endpoint: mean survival time, dose: 200.0 mg/kg/injection, schedule: Q01DX009 (ip), vehicle: water 96 % of control | endpoint: mean survival time, dose: 200.0 mg/kg/injection, schedule: Q04DX003 (ip), vehicle: water 103 % of control | endpoint: mean survival time, dose: 400.0 mg/kg/injection, schedule: Q01DX009 (ip), vehicle: water 102 % of control | endpoint: mean survival time, dose: 400.0 mg/kg/injection, schedule: Q04DX003 (ip), vehicle: water 103 % of control

CCOC(=O)CCc1ccc(O)c(O)c1
inactive: endpoint: mean survival time, dose: 100.0 mg/kg/injection, schedule: Q01DX009 (ip), vehicle: saline 100 % of control | endpoint: mean survival time, dose: 100.0 mg/kg/injection, schedule: Q04DX003 (ip), vehicle: saline 92 % of control | endpoint: mean survival time, dose: 200.0 mg/kg/injection, schedule: Q01DX009 (ip), vehicle: saline 102 % of control | endpoint: mean survival time, dose: 200.0 mg/kg/injection, schedule: Q04DX003 (ip), vehicle: saline 111 % of control | endpoint: mean survival time, dose: 400.0 mg/kg/injection, schedule: Q04DX003 (ip), vehicle: saline 101 % of control

CC(=O)Nc1ccc2c([N+](=O)[O-])cccc2c1-c1c(NC(C)=O)ccc2c([N+](=O)[O-])cccc12
inactive: endpoint: mean survival time, dose: 100.0 mg/kg/injection, schedule: Q01DX009 (ip), vehicle: Klucel (hydroxypropylcellulose) (HPC) 101 % of control | endpoint: mean survival time, dose: 100.0 mg/kg/injection, schedule: Q04DX003 (ip), vehicle: Klucel (hydroxypropylcellulose) (HPC) 88 % of control | endpoint: mean survival time, dose: 200.0 mg/kg/injection, schedule: Q01DX009 (ip), vehicle: Klucel (hydroxypropylcellulose) (HPC) 105 % of control | endpoint: mean survival time, dose: 200.0 mg/kg/injection, schedule: Q04DX003 (ip), vehicle: Klucel (hydroxypropylcellulose) (HPC) 97 % of control | endpoint: mean survival time, dose: 400.0 mg/kg/injection, schedule: Q01DX009 (ip), vehicle: Klucel (hydroxypropylcellulose) (HPC) 98 % of control | endpoint: mean survival time, dose: 400.0 mg/kg/injection, schedule: Q04DX003 (ip), vehicle: Klucel (hydroxypropylcellulose) (HPC) 92 % of control

Cc1cc(C(=O)C=[N+]=[N-])c(CN2C(=O)c3ccccc3C2=O)c(=O)n1C
inactive: endpoint: mean survival time, dose: 100.0 mg/kg/injection, schedule: Q04DX003 (ip), vehicle: other 100 % of control | endpoint: mean survival time, dose: 200.0 mg/kg/injection, schedule: Q04DX003 (ip), vehicle: other 93 % of control | endpoint: mean survival time, dose: 400.0 mg/kg/injection, schedule: Q04DX003 (ip), vehicle: other 94 % of control

CS(C)=O
inactive: endpoint: mean survival time, dose: 100.0 mg/kg/injection, schedule: Q01DX001 (ip), vehicle: saline 112 % of control | endpoint: mean survival time, dose: 200.0 mg/kg/injection, schedule: Q01DX001 (ip), vehicle: saline 102 % of control | endpoint: mean survival time, dose: 400.0 mg/kg/injection, schedule: Q01DX001 (ip), vehicle: saline 106 % of control | endpoint: mean survival time, dose: 1500.0 mg/kg/injection, schedule: Q01DX Z (ip), vehicle: other 98 % of control | endpoint: mean survival time, dose: 1.6 grams/kg/injection, schedule: Q03HX008 (ip), vehicle: saline 97 % of control | endpoint: mean survival time, dose: 1.6 grams/kg/injection, schedule: Q03HX016 (ip), vehicle: saline 101 % of control | endpoint: mean survival time, dose: 1.6 grams/kg/injection, schedule: Q03HX024 (ip), vehicle: saline 105 % of control | endpoint: mean survival time, dose: 3000.0 mg/kg/injection, schedule: Q01DX Z (ip), vehicle: other 98 % of control | endpoint: mean survival time, dose: 3.1 grams/kg/injection, schedule: Q01DX001 (ip), vehicle: saline 104 % of control | endpoint: mean survival time, dose: 3.1 grams/kg/injection, schedule: Q01DX009 (ip), vehicle: saline 100 % of control | endpoint: mean survival time, dose: 3.1 grams/kg/injection, schedule: Q03HX008 (ip), vehicle: saline 91 % of control | endpoint: mean survival time, dose: 3.1 grams/kg/injection, schedule: Q03HX024 (ip), vehicle: saline 110 % of control | endpoint: mean survival time, dose: 3.1 grams/kg/injection, schedule: Q04DX003 (ip), vehicle: saline 95 % of control | endpoint: mean survival time, dose: 3.1 grams/kg/injection, schedule: Q08DX002 (ip), vehicle: saline 98 % of control | endpoint: mean survival time, dose: 6.3 grams/kg/injection, schedule: Q01DX001 (ip), vehicle: saline 100 % of control | endpoint: mean survival time, dose: 6.3 grams/kg/injection, schedule: Q01DX009 (ip), vehicle: saline 97 % of control | endpoint: mean survival time, dose: 6.3 grams/kg/injection, schedule: Q04DX003 (ip), vehicle: saline 95 % of control | endpoint: mean survival time, dose: 6.3 grams/kg/injection, schedule: Q08DX002 (ip), vehicle: saline 96 % of control | endpoint: median survival time, dose: 0.5 mg/kg/injection, schedule: Q#C X009 (adlb), vehicle: water 106 % of control | endpoint: median survival time, dose: 1.0 mg/kg/injection, schedule: Q01DX019 (adlb), vehicle: water 92 % of control | endpoint: median survival time, dose: 1.0 mg/kg/injection, schedule: Q#C X009 (adlb), vehicle: water 102 % of control | endpoint: median survival time, dose: 2.0 mg/kg/injection, schedule: Q01DX019 (adlb), vehicle: water 97 % of control | endpoint: median survival time, dose: 2.0 mg/kg/injection, schedule: Q#C X009 (adlb), vehicle: water 107 % of control | endpoint: median survival time, dose: 4.0 mg/kg/injection, schedule: Q01DX019 (adlb), vehicle: water 99 % of control | endpoint: median survival time, dose: 4.0 mg/kg/injection, schedule: Q#C X009 (adlb), vehicle: water 101 % of control | endpoint: median survival time, dose: 8.0 mg/kg/injection, schedule: Q#C X009 (adlb), vehicle: water 103 % of control

COC(=O)C1(C)CCCC2(C)C1CCC13OCC(CC21)C(=C(C)C)C3OC(C)=O (stereo not given)
inactive: endpoint: mean survival time, dose: 100.0 mg/kg/injection, schedule: Q01DX009 (ip), vehicle: saline with Tween-80 93 % of control | endpoint: mean survival time, dose: 200.0 mg/kg/injection, schedule: Q01DX009 (ip), vehicle: saline with Tween-80 88 % of control | endpoint: mean survival time, dose: 400.0 mg/kg/injection, schedule: Q01DX009 (ip), vehicle: saline with Tween-80 90 % of control

CCCCCCCCCCCCCCCCC(C)(O)C#CC(C)(O)CCCCCCCCCCCCCCCC (stereo not given)
inactive: endpoint: mean survival time, dose: 100.0 mg/kg/injection, schedule: Q01DX009 (ip), vehicle: other 101 % of control | endpoint: mean survival time, dose: 100.0 mg/kg/injection, schedule: Q04DX002 (ip), vehicle: saline with Tween-80 101 % of control | endpoint: mean survival time, dose: 200.0 mg/kg/injection, schedule: Q01DX009 (ip), vehicle: other 97 % of control | endpoint: mean survival time, dose: 200.0 mg/kg/injection, schedule: Q04DX002 (ip), vehicle: saline with Tween-80 90 % of control | endpoint: mean survival time, dose: 400.0 mg/kg/injection, schedule: Q01DX009 (ip), vehicle: other 101 % of control | endpoint: mean survival time, dose: 400.0 mg/kg/injection, schedule: Q04DX002 (ip), vehicle: saline with Tween-80 97 % of control

CC12CCCC(O)(C1)NC(=O)C2C#N (stereo not given)
inactive: endpoint: mean survival time, dose: 100.0 mg/kg/injection, schedule: Q01DX001 (ip), vehicle: carboxymethylcellulose (CMC) 102 % of control | endpoint: mean survival time, dose: 200.0 mg/kg/injection, schedule: Q01DX001 (ip), vehicle: carboxymethylcellulose (CMC) 97 % of control | endpoint: mean survival time, dose: 400.0 mg/kg/injection, schedule: Q01DX001 (ip), vehicle: carboxymethylcellulose (CMC) 94 % of control

OCC#CCO
inactive: endpoint: mean survival time, dose: 5.0 mg/kg/injection, schedule: Q01DX001 (ip), vehicle: carboxymethylcellulose (CMC) 95 % of control | endpoint: mean survival time, dose: 10.0 mg/kg/injection, schedule: Q01DX001 (ip), vehicle: carboxymethylcellulose (CMC) 104 % of control | endpoint: mean survival time, dose: 12.0 mg/kg/injection, schedule: Q04DX003 (ip), vehicle: saline 98 % of control | endpoint: mean survival time, dose: 20.0 mg/kg/injection, schedule: Q01DX001 (ip), vehicle: carboxymethylcellulose (CMC) 93 % of control | endpoint: mean survival time, dose: 25.0 mg/kg/injection, schedule: Q04DX003 (ip), vehicle: saline 104 % of control | endpoint: mean survival time, dose: 40.0 mg/kg/injection, schedule: Q01DX001 (ip), vehicle: carboxymethylcellulose (CMC) 106 % of control | endpoint: mean survival time, dose: 50.0 mg/kg/injection, schedule: Q01DX009 (ip), vehicle: other 105 % of control | endpoint: mean survival time, dose: 50.0 mg/kg/injection, schedule: Q04DX003 (ip), vehicle: saline 95 % of control | endpoint: mean survival time, dose: 80.0 mg/kg/injection, schedule: Q01DX001 (ip), vehicle: carboxymethylcellulose (CMC) 95 % of control

Cc1cccc(NC(=O)Nc2ccccc2)n1
inactive: endpoint: mean survival time, dose: 100.0 mg/kg/injection, schedule: Q04DX002 (ip), vehicle: Klucel (hydroxypropylcellulose) (HPC) 98 % of control | endpoint: mean survival time, dose: 200.0 mg/kg/injection, schedule: Q04DX002 (ip), vehicle: Klucel (hydroxypropylcellulose) (HPC) 103 % of control | endpoint: mean survival time, dose: 400.0 mg/kg/injection, schedule: Q04DX002 (ip), vehicle: Klucel (hydroxypropylcellulose) (HPC) 103 % of control
